# Columns and labels:
# hERβ = biological target: T1, hERβ (Homo sapiens, UniProt Q92731); assay: ERβ CALUX assay (U2-OS cell-based luciferase reporter gene); conditions: for estrogenic activity at the hERβ in the ERβ CALUX assay (in words): applied alone; for ERβ CALUX EC01 / ERβ CALUX EC10: single substances; for ERβ CALUX EC01: 1% effect (of 1 nM E2); for ERβ CALUX EC10: 10% effect (of 1 nM E2)
# T1 construct: expressed in transfected cells; host or cells: human U2-OS cells
# Description: (§1) The ERα and ERβ CALUX assay were performed to evaluate the effect of the test substances on the hERα and hERβ as described by van der Burg et al. [21] with slight modifications. The pesticides were tested in three independent experiments, individually and as mixtures, in triplicates in 96-well plates. DMSO was used as solvent and was present in the test medium at a maximal concentration of 0.2% v/v. Solvent controls were included in each plate. […] The same plate also contained 3 μM 17α-methyltestosterone as additional estrogenic control as well as 10 nM corticosterone as negative control. […] A prescreen, in which all test substances were tested for estrogenicity between 0.01 μM and 60 μM, was performed. The three highest test substance concentrations and controls were checked for their ability to affect cell membrane integrity by quantification of the lactate dehydrogenase leakage (LDH) with the CytoTox-ONE™ Homogeneous Membrane Integrity Assay (Promega, Madison, WI, USA), which was performed as recommended by the manufacturer. Those test substance concentrations leading to a decline of the effect after a maximum was reached as well as those leading to insolubility were excluded from further experiments.
# (§2) Normalized concentration-response data from the YES, ERα and ERβ CALUX assays were analyzed by nonlinear regression after the x-axis with the test substance concentrations was log-transformed. […] All mathematical/statistical analyses were performed using R version 3.1.2 (R Foundation for Statistical Computing, Vienna, Austria).
# [1] = Insolubility in the YES assay medium (turbidity at 690 nm, cell-free control plate); conditions: for solubility: kinetic from dmso stock
# Excerpt: (§3) It should be taken into account that an increased turbidity could also mask cytotoxicity.
# The concentrations of the test substances to be tested were limited depending on their solubility. […] A decrease of turbidity in the YES assay was assumed to be equivalent to an inhibition of yeast cell growth.
# hERα [2] = biological target: T2, hERα (Homo sapiens, UniProt P03372); assay: ERα CALUX assay (U2-OS cell-based luciferase reporter gene); design: expressed in transfected cells; host or cells: human U2-OS cells; conditions: for ERα CALUX EC01: 1% effect (of 1 nM E2); for ERα CALUX EC10: 10% effect (of 1 nM E2)
# Description: as §1, §2
# MCF-7 cells [3] = tested on: MCF-7 cells; design: method as in PMID 10789375; conditions: cited from earlier work
# [4] = biological target: T3, human estrogen receptor α (hERα) (Homo sapiens, UniProt P03372); assay: Yeast-based estrogen screen (YES) assay, β-galactosidase reporter gene; type: cell-based; conditions: for YES EC01 / YES EC10: single substances; for YES EC01: concentration needed to elicit a 1% effect of 1 nM E2; for YES EC10: concentration needed to elicit a 10% effect of 1 nM E2
# T3 construct: expressed in transfected cells
# Description: as §3, §2
# hERα [5] = biological target: T2, hERα; assay: YES assay in combination with a saturating concentration of E2 (1 nM): anti-estrogenic or potentiating effects; type: cell-based, yeast; conditions: for maximum to which the effect of 1 nM E2 was enhanced: YES assay, combined with 1 nM E2, normalized to 1 nM E2; for effect when combined with 1 nM E2 in the YES assay (in words): saturating 1 nM E2
# Description: Each pesticide and pesticide mixture was tested in quadruplicate in at least five experiments.
# yeast cells = assay: Cytotoxicity in the YES assay (decrease in optical density/turbidity at 690 nm); type: cell-based; conditions: assumed equivalent to inhibition of yeast cell growth, data not shown
# MCF-7 cells [6] = conditions: cited from earlier work
# miR-21 = conditions: cited from earlier work
# hERα [7] = biological target: T2, hERα; conditions: in combination with 3 pM E2
# MCF-7 cells [8] = conditions: with or without E2; 27 (pirimicarb), ref 11 (propamocarb); cited from earlier work
# estrogen receptor = tested on: estrogen receptor; design: method as in PMID 11884232; conditions: in combination with a saturating concentration of E2; cited from earlier work
# T3 sequence (P03372 whole entry): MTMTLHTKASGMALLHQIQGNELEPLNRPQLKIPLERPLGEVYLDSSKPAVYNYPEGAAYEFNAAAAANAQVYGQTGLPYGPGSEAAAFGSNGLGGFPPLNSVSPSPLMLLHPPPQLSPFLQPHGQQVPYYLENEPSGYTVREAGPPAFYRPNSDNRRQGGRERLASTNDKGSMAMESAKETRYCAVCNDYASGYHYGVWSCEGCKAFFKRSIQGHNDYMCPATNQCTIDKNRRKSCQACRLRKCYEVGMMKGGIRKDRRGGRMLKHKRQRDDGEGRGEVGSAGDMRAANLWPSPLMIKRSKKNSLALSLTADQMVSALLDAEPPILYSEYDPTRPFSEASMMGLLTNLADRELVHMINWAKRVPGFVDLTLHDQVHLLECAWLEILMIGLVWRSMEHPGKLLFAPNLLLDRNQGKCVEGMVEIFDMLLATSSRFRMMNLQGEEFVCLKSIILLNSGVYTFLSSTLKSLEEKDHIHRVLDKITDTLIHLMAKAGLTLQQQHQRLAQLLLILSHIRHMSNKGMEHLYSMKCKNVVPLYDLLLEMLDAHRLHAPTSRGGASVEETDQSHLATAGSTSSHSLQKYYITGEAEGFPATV
# T2 sequence (P03372 whole entry): as above
# T1 sequence (Q92731 whole entry): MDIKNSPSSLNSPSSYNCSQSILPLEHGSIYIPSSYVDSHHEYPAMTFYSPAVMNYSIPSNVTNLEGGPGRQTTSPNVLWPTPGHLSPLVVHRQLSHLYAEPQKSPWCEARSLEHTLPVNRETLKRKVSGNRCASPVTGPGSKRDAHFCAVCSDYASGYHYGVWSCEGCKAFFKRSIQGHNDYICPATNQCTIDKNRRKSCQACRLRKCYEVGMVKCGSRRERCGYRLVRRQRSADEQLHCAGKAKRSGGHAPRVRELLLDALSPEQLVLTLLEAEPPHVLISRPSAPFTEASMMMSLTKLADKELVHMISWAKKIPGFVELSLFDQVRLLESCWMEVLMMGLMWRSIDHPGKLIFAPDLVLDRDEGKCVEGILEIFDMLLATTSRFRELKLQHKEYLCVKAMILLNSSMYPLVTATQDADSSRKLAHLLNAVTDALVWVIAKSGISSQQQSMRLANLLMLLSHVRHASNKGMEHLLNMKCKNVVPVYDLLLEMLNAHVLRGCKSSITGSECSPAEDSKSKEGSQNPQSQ
smiles,measurement,setting,value
"Clc1ccc(C(c2ccccc2Cl)C(Cl)(Cl)Cl)cc1 (stereo not shown) [2,4’-DDT, 2,4’-dichlorodiphenyltrichloroethane]",estrogenic activity at the hERβ in the ERβ CALUX assay (in words),hERβ,dose-dependent estrogenic activity
same,ERβ CALUX EC01,hERβ,0.055 µM
same,ERβ CALUX EC10,hERβ,0.603 µM
"Clc1ccc(C(c2ccc(Cl)cc2)C(Cl)(Cl)Cl)cc1 [4,4’-DDT, 4,4’- dichlorodiphenyltrichloroethane]",concentrations leading to insolubility (tested in the YES assay),[1]; YES assay medium,50 to 500 µM
same,estrogenic activity at the hERβ in the ERβ CALUX assay (in words),hERβ,dose-dependent estrogenic activity
same,ERβ CALUX EC01,hERβ,1.02 µM
CCOP(=S)(OCC)Oc1nc(Cl)c(Cl)cc1Cl [chlorpyrifos],solubility,[1],100 to 1000 µM
same,ERα CALUX EC01,hERα [2]; single substances,617 nM
same,ERα CALUX EC10,hERα [2]; single substances,3.47 µM
same,effect in MCF-7 proliferation assay compared with E2,MCF-7 cells [3],without exceeding the effect of E2
same,YES EC01,[4],79.4 nM
same,maximum to which the effect of 1 nM E2 was enhanced,hERα [5],1.84
OC(c1ccc(Cl)cc1)(c1cncnc1)c1ccccc1Cl (stereo not shown) [fenarimol],maximum effect relative to the effect of 0.1 nM E2,"hERα [2]; single substances, ERα CALUX assay",1.17
same,ERα CALUX EC01,hERα [2]; single substances,794 nM
same,ERα CALUX EC10,hERα [2]; single substances,2.82 µM
same,effect in MCF-7 proliferation assay compared with E2,MCF-7 cells [3],without exceeding the effect of E2
same,maximum effect normalized to the effect of 1 nM E2,"[4]; single substance, YES assay",2.69
same,YES EC01,[4],11700 nM
same,YES EC10,[4],21.9 µM
same,maximum to which the effect of 1 nM E2 was enhanced,hERα [5],4.36
same,estrogenic activity at the hERβ in the ERβ CALUX assay (in words),hERβ,dose-dependent estrogenic activity
same,ERβ CALUX EC01,hERβ,3.63 µM
same,ERβ CALUX EC10,hERβ,13.5 µM
CC1(C(=O)Nc2ccc(O)c(Cl)c2Cl)CCCCC1 [fenhexamid],concentrations decreasing turbidity by more than 30% in comparison to the solvent control,yeast cells,≥ 500 µM
same,solubility,[1],100 µM
same,E2-induced cell proliferation in MCF-7 cells,MCF-7 cells [6],inhibition of E2-induced cell proliferation
same,estrogenic activity at the hERβ in the ERβ CALUX assay (in words),hERβ,dose-dependent estrogenic activity
same,ERβ CALUX EC01,hERβ,1.17 µM
same,ERβ CALUX EC10,hERβ,5.01 µM
same,miR-21 expression in breast cancer cells,miR-21,increase of miR-21 expression
N#Cc1c[nH]cc1-c1cccc2c1OC(F)(F)O2 [fludioxonil],solubility,[1],100 to 500 µM
same,ERα CALUX EC01,hERα [2]; single substances,363 nM
same,ERα CALUX EC10,hERα [2]; single substances,1.26 µM
same,E2-induced cell proliferation in MCF-7 cells,MCF-7 cells [6],inhibition of E2-induced cell proliferation
same,YES EC01,[4],832 nM
same,YES EC10,[4],26.3 µM
same,inhibition of the E2 effect in the YES assay,hERα [5]; in combination with 1 nM E2,44%
same,effect when combined with 1 nM E2 in the YES assay (in words),hERα [5],concentration-dependent anti-estrogenic effects
same,miR-21 expression in breast cancer cells,miR-21,increase of miR-21 expression
same,anti-estrogenic effect in the ERα CALUX assay (in words),hERα [7],an anti-estrogenic effect was not observed
Cc1nc(N(C)C)nc(OC(=O)N(C)C)c1C [pirimicarb],proliferation of MCF-7 cells in the E-Screen,MCF-7 cells [8],did not stimulate the proliferation of MCF-7 cells
same,estrogenic activity in the ERα CALUX assay (in words),hERα [2]; applied alone,negative
same,effect in transactivation assay with MCF-7 BOS cells,estrogen receptor,induced a stronger effect
same,estrogenic activity in the YES assay (in words),[4]; applied alone,negative
same,effect when combined with 1 nM E2 in the YES assay (in words),hERα [5],negative
CCCOC(=O)NCCCN(C)C [propamocarb],proliferation of MCF-7 cells in the E-Screen,MCF-7 cells [8],did not stimulate the proliferation of MCF-7 cells
